Reference: patent US9896482B2, “Beta hairpin peptides having antiviral properties against Dengue virus” (CENTRO DE INGENIERÍA GENÉTICA Y BIOTECNOLOGÍA, priority 2014, dated 2018)
pIC50: −log10 of the molar value. Read-outs that look alike come from different tables or passages of the source. Marks after values point to notes of the source that are not given here. Where a SMILES comes first, the peptide text is derived from it. Bridges are numbered along the chain shown (N, C = ends). [ ]: non-standard residue; d: D form.

What was measured:
[1] = system: DENV serotype 2 (NIBSC code S16803); test: Plaque reduction assay in Vero cells, DENV2; assay type: cell-based, Dengue virus
Description: (§1) The cells were grown in 24 well plates until the monolayer reached approximately 90% confluence, after which they were washed twice with MEM medium without Fetal Bovine Serum (FBS). Then, peptide dilutions were added and the cell-peptide mixtures were incubated typically for 1 hour at 37° C., followed by the addition of a DENV serotype 2 preparation (NIBSC code S16803) at a multiplicity of infection (m.o.i.) of 0.001. The cells were then incubated for 1 hour at 37° C., and once the period of incubation with the viral inoculum concluded, were washed again to remove unbound virions and incubated for 5 days at 37° C. in high density medium (MEM supplemented with non-essential amino acids, 1% FBS, 1% carboxymethylcellulose) in order to let viral plaques form. Afterwards, the cells were stained with 0.1% Naphtol Blue Black in 0.15 M sodium acetate. Two replicates per experimental point were used in each assay, and three independent determinations were performed for each sample.
Next, it was decided to compare the antiviral activity of peptides PHB4 and HDIII3CL against all four DENV serotypes, with the objective of comparing their respective IC50 values. This comparison was performed with plaque reduction assays on Vero cells, adding the viral inoculum for each serotype (DENV1, NIBSC code West Pac 74, DENV2, NIBSC, code S16803; DENV3, NIBSC, code CH53489; DENV 4, NIBSC code TVP360) at a m.o.i. of 0.001.

[2] = system: DENV3 (NIBSC code CH53489); test: Plaque reduction assay in Vero cells, DENV3; assay type: cell-based, Dengue virus; conditions: m.o.i. 0.001, read-out: Antiviral activity IC50 vs DENV3
Description: as §1
(§2) Next, it was decided to compare the antiviral activity of peptides PHB4 and HDIII3CL against all four DENV serotypes, with the objective of comparing their respective IC50 values. […]

[3] = system: DENV 4 (NIBSC code TVP360); test: Plaque reduction assay in Vero cells, DENV4; assay type: cell-based, Dengue virus; conditions: m.o.i. 0.001, read-out: Antiviral activity IC50 vs DENV4
Description: as §1, §2

[4] = Toxicity in Vero cells (MTT assay and manual cell counting); assay type: cell-based; conditions: ‡ non toxic at 1000 μM, read-out: Ctox50
Description: The toxicity of the beta hairpin peptides was assessed with the MTT (3-(4,5-dimethylthiazol-2-yl)-2,5-diphenyltetrazolium bromide, Invitrogen, USA) assay (Mosmann, T. (1983). J. Immunol. Methods 65, 55-63.), and by manual cell counting using a Neubauer chamber. Ninety-six well plates (Costar, USA) were seeded with 200 μL/well of a suspension containing Vero cells at 1×10^5 cells/mL and incubated until the monolayers reached approximately 90% confluence, typically for 18-24 h. After washing the cells twice with DMEM (Dulbecco's Modified Eagle Medium) medium, 50 μL/well were added of the peptide or additive dilutions to be evaluated (Triton ^X-100™ dissolved in PBS was used as positive toxicity control) and the plates were incubated at 37° C. under a 5% CO2 atmosphere for 2 or 24 h. Two different procedures were then employed to measure toxicity: • a) A 2 mg/mL solution of MTT in PBS was added (50 μL/well) and the plates were incubated for further 4 h at 37° C., 5% CO2. The medium was then removed, and 100 μL/well of DMSO were then added to solubilize formazan precipitates. Finally, the optical density (OD) of the supernatants at a wavelength of 540 nm was measured using a plate reader (Sensident Scan™, Merck, Germany). • b) The plates were washed with 200 μL/well of DMEM medium and then a trypsin solution (Sigma, USA) was added at 50 μL/well. After inactivating the trypsin by adding 150 μL/well of DMEM supplemented with 10% FBS, the cells were counted using the Trypan Blue (Gibco, USA) vital stain. The data were processed using the statistical software package Prism v5.3 (GraphPad, USA), using non-linear regression to fit them to a log10 (concentration) vs response curve.

[5] = Light scattering aggregation kinetics; assay type: physicochemical
Description: Light scattering was used to monitor the aggregation of peptide PHB4. The measurements were performed on a Shimadzu™ RF-5301PC (Shimadzu, Japan) spectrofluorimeter, acquiring data with the software provided by the instrument manufacturer. The wavelengths of the incident light beam (excitation) and the detector (emission) were set to 320 nm, using excitation and emission apertures of 5 nm. The scattering of light due to the peptide was calculated by subtracting, from the intensity of the light dispersed by the peptide, the intensity of the light dispersed by a solution without peptide (blank). Variations on light scattering due to the dissolution of the peptide in PBS were studied by acquiring data in time course mode, with a measurement frequency of 1 or 2 per second. The solutions of PHB4 in PBS were prepared by mixing one part of a solution of the peptide in water with one part of a PBS 2X solution.

[6] = Transmission electron microscopy of aggregate morphology; assay type: physicochemical
Description: In order to analyze the morphology of the aggregates formed by peptide PHB4, peptide solutions were subjected to different experimental treatments where conditions such as temperature, incubation time and the presence of electrolytes were manipulated to facilitate aggregation (FIG. 10). For this particular study, two peptide solutions (2 mg/mL, 0.73 mM) were prepared, one in water and another in PBS. A sample was then taken from each, directly fixed on the grids and observed under the microscope (T0 samples). The remainder was incubated for 1 hour at 50° C. and then samples were taken and fixed immediately (T1 samples). The remainder was then incubated for an additional 2 hours at room temperature, and then fixed (T2 samples).

DENV2 = test: In vivo protection assay, intracranial challenge, DENV2; parameters: species or system Balb/c mice; conditions: 30 μg peptide inoculated intracranially with 10 median lethal doses, 21 days
Description: (§3) An experiment was set up to evaluate the in vivo antiviral activity of peptide PHB4 and compare it to that of peptide HDIII3CL. For this purpose, groups of 12 adult Balb/c mice (20 g average body weight) were anesthetized by ether inhalation and inoculated intracranially with 20 μL of viral preparations containing 10 times the median lethal dose of this model and the peptide to be evaluated. The animals recovered quickly and already appeared alert five minutes after the treatment, and were monitored afterwards for 21 days. The data were evaluated using the Kaplan-Meier logarithmic rank test.

DENV3 = test: In vivo protection assay, intracranial challenge, DENV3; parameters: species or system Balb/c mice; conditions: 30 μg peptide, morbidity evaluated instead of lethality
Description: as §3

For `CC[C@H](C)[C@@H]1NC(=O)[C@H](Cc2ccccc2)NC(=O)[C@H](Cc2c[nH]c3ccccc23)NC(=O)[C@H](CC(N)=O)NC(=O)[C@H](C(C)C)NC(=O)[C@H](CCCCN)NC(=O)[C@H](Cc2c[nH]c3ccccc23)NC(=O)[C@H](CCCCN)NC(=O)[C@H]2CCCN2C(=O)[C@H](CCCNC(=N)N)NC(=O)[C@H]([C@@H](C)O)NC(=O)[C@H](Cc2c[nH]c3ccccc23)NC(=O)[C@H](Cc2ccc(O)cc2)NC(=O)[C@H](C(C)C)NC(=O)[C@H](CCC(=O)O)NC(=O)[C@H]([C@@H](C)CC)NC(=O)[C@@H](N)CSSC[C@@H](C(=O)N[C@@H](CCCCN)C(=O)N[C@@H](CCCCN)C(=O)N[C@@H](CCCCN)C(N)=O)NC1=O` [PHB4] (H-CIEVYWTR[dP]KWKVNWFICKKK-NH2; disulfide 1-18; N-terminus assumed), the pIC50 ([1]; DENV2, plaque reduction, NA = no detectable activity at concentrations lower than or equal to 100 μM, read-out: IC50, antiviral activity in Vero cells (50% inhibitory activity)) was 8.52, the pIC50 ([1]; Vero cells, m.o.i. 0.001, read-out: Antiviral activity IC50 vs DENV2) was 8.52 and the “Fold more potent than peptide HDIII3CL” value ([1]; depending on serotype, DENV1-4, Vero cells) was 4000- to 7500 fold. For the same compound, the pIC50 [2] was 8.30, the pIC50 [3] was 8.00 and the CC50 [4] was 13000 nM. For the same compound, the “Maximum of ratio of dispersed light relative to time zero” value ([5]; 5 μM peptide in PBS) was 11, the “Maximum of ratio of dispersed light relative to time zero” value ([5]; 10 μM peptide in PBS) was 7 and the “Latency period before increase of dispersed light” value ([5]; dissolved into PBS) was under 2 min. For the same compound, the “Size of protofibril/fibril-type filamentous structures” value ([6]; 2 mg/mL in water, after 50° C. treatment) was 5-10 nm, the Diameter of particulates ([6]; 2 mg/mL in water, room temperature) was 5-20 nm and the “Size of filamentous structures” value ([6]; 2 mg/mL, immediately after dissolving in PBS) was 5-20 nm. For the same compound, the “Protection (%) DENV2” value (DENV2) was 100*** % and the “Protection (%) DENV3” value (DENV3) was 100*** %.
